From patent publication US6709649B1, “RANTES derived peptides with anti-HIV activity” (Fondazione Centro San Raffaele Del Monte Tabor, priority 1998, dated 2004)

Tests used:
[1] = test system: CCR5-dependent HIV-1BaL strain; assay: "cell-free" acute infection test (growth of HIV-1 in pre-activated primary mononuclear cells, p24 antigen); type: cell-based; conditions: at the tested doses
Excerpt: Some peptides of the invention have been tested to verify their inhibitory activity against HIV virus-1. Two different tests have been used: the “cell-free ” acute infection test and the test of inhibition of the formation of syncitia. The first test evaluates the growth of HIV-1 in primary mononuclear cells pre-activated in vitro and is closer to the natural model of infection. On the other hand, the test of syncitia inhibition evaluates the capability of an inhibitor to inhibit the membrane fusion induced by HIV and it makes use of cells of a continuous line T CD4+ (PM1) chronically infected with an HIV-1 CCR5-dependent (PM1BaL) strain. In both tests, cells were pre-treated with the peptides before exposition to the virus or to 5 the infected cells. Scalar concentrations for each peptide have been tested to calculate the 50% inhibitory dose (ID50), i.e. the dose capable of reducing by 50% the values of the untreated controls. The ID50 values (expressed as micromolar values) of different peptides in the acute infection test are illustrated in the following Table:
The ability of the mutants obtained as described in Example 2, to inhibit the infection by the prototypic macrophage-tropic HIV-1BaL strain, was evaluated in primary cultures of activated mononuclear cells from peripheral blood. The procedure used to infect PBL and to evaluate the production of p24 antigen is described in literature (Scarlatti et al., Nat. Med. November 3:11 1259-65, 1997).

[2] = test system: HIV-1 CCR5-dependent (PM1BaL) strain; assay: test of inhibition of the formation of syncitia (PM1 cells chronically infected with HIV-1BaL); type: cell-based; conditions: PM1 line infected by HIV-1BaL
Excerpt: Some peptides of the invention have been tested to verify their inhibitory activity against HIV virus-1. Two different tests have been used: the “cell-free ” acute infection test and the test of inhibition of the formation of syncitia. The first test evaluates the growth of HIV-1 in primary mononuclear cells pre-activated in vitro and is closer to the natural model of infection. On the other hand, the test of syncitia inhibition evaluates the capability of an inhibitor to inhibit the membrane fusion induced by HIV and it makes use of cells of a continuous line T CD4+ (PM1) chronically infected with an HIV-1 CCR5-dependent (PM1BaL) strain. In both tests, cells were pre-treated with the peptides before exposition to the virus or to 5 the infected cells. Scalar concentrations for each peptide have been tested to calculate the 50% inhibitory dose (ID50), i.e. the dose capable of reducing by 50% the values of the untreated controls. The ID50 values (expressed as micromolar values) of different peptides in the acute infection test are illustrated in the following Table: […]

| Substance | capability to inhibit the acute infection (in words) [1] | capability to inhibit the formation of syncitia (in words) [2] |
| --- | --- | --- |
| YTSGKCSNPAVV [B, RANTES peptide used as control] | no antiviral activity | – |
| Ace-CFAYIARPLPRAHIKEYFY-NH2 [Peptide 2] | marked increase in the capability to, inhibit the acute infection | increased capability to inhibit the formation of syncitia |
| YFYTSGKCSNPA [RANTES peptide used as control] | no antiviral activity | – |
| SGKCSNPAVVFV [RANTES peptide used as control] | no antiviral activity | – |
| Ace-FAYIARPLPRAHIKEYFY-NH2 (Ac-FAYIARPLPRAHIKEYFY-NH2) [Peptide 1] | marked increase in the capability to, inhibit the acute infection | increased capability to inhibit the formation of syncitia |
